Measured values published in ChEMBL document CHEMBL3797144, “2,8-Diazaspiro[4.5]decan-8-yl)pyrimidin-4-amine potent CCR4 antagonists capable of inducing receptor endocytosis” (Eur J Med Chem, 2016).
≈ marks a conversion by molar mass, not a printed value.

Experiments:
[1] = target: T1, C-C chemokine receptor type 4 (Homo sapiens, UniProt P51679); assay: Antagonist activity at human CCR4 expressed in CHO cells by [35S]GTPgammaS assay; format: functional, cell-based
T1 sequence (P51679 whole entry): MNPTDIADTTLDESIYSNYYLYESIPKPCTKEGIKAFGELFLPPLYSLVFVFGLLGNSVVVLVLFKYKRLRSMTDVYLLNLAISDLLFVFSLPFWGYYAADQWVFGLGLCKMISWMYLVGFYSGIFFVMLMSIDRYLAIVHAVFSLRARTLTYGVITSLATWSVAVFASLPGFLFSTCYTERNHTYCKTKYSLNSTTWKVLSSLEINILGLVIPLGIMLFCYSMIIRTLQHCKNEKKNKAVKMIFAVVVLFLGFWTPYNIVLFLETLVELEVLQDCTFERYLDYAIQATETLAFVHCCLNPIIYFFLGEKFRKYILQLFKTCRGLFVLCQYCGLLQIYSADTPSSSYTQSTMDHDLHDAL

[2] = target: T1, C-C chemokine receptor type 4; assay: Antagonist activity at CCR4 in human PBMC assessed as inhibition of actin polymerization by flow cytometry; conditions: read-out: pA2 (converted)
[3] = target: T1, C-C chemokine receptor type 4; assay: Displacement of [125I]-TARC from human recombinant CCR4 expressed in CHO cell membranes by scintillation counting method
[4] = Kinetic solubility of the compound by chemiluminescent nitrogen detection assay; format: physicochemical; conditions: read-out: Kinetic_solubility
[5] = target: T1, C-C chemokine receptor type 4; assay: (§1) Induction of CCR4 internalisation in human HUT78 cells after 30 mins by flow cytometry; format: functional, cell-based
[6] = target: T2, C-C chemokine receptor type 4 (Homo sapiens) (UniProt P51679); assay: as §1; format: functional, cell-based
T2 sequence (whole entry): T1 sequence (P51679 whole entry)

[7] = target: T2, C-C chemokine receptor type 4 (Homo sapiens); assay: Induction of CCR4 internalisation in human HUT78 cells at 10 nM after 30 mins by flow cytometry; format: functional, cell-based
[8] = Plasma protein binding in human; format: ADME, cell-free; conditions: read-out: PPB (converted)
[9] = Half life in rat at 1 mg/kg; format: ADME, organism-based; conditions: in vivo
[10] = Volume of distribution in rat at 1 mg/kg; format: ADME, organism-based; conditions: in vivo
[11] = system: Rattus norvegicus; assay: Clearance in rat at 1 mg/kg relative to liver blood flow; format: ADME, organism-based; conditions: in vivo
[12] = Clearance in rat at 1 mg/kg; format: ADME, organism-based; conditions: in vivo

SMILES	Ki [3] [nM]	solubility kinetic [4] [µg/mL]	further results
O=C([C@H]1CCCCN1)N1CCN(c2nccc(NCc3ccc(Cl)cc3Cl)n2)CC1	2.51	140 (≈ 312 µM)	IC50 [1]: 7.94 nM; Kb [2]: 174 nM
COc1cc2nc(N3CCC(N(C)C(=O)[C@H]4CCCN4)CC3)nc(Nc3ccc(Cl)cc3F)c2cc1OC	–	–	EC50 [5]: 398 nM
O=C(C1CCCCC1)N1CCC2(CCN(c3nccc(NCc4ccc(Cl)cc4Cl)n3)CC2)C1	631	3 (≈ 5.97 µM)	–
O=C([C@@H]1CCCCN1)N1CCC2(CCN(c3nccc(NCc4ccc(Cl)cc4Cl)n3)CC2)C1	20	170 (≈ 338 µM)	–
Cl.Cl.Clc1ccc(CNc2ccnc(N3CCC4(CCNC4)CC3)n2)c(Cl)c1	316	144	–
O=C([C@H]1CCCCN1)N1CCC2(CCN(c3nccc(NCc4ccc(Cl)cc4Cl)n3)CC2)C1	25.1	172 (≈ 342 µM)	–
Clc1ccc(CNc2ccnc(N3CCC4(CCN(C[C@@H]5CCCN5)C4)CC3)n2)c(Cl)c1	3.98	56 (≈ 118 µM)	EC50 [5]: 12.6 nM; Activity [6]: 56%
Clc1ccc(CNc2ccnc(N3CCC4(CCN(C[C@H]5CCCN5)C4)CC3)n2)c(Cl)c1	5.01	16 (≈ 33.7 µM)	EC50 [5]: 6.31 nM; Activity [6]: 64%
C[N+]1(C2CCN(c3ncc(-c4ccc(F)cc4F)c(NCc4ccc(F)cc4F)n3)CC2)CCCCC1	–	–	Activity [7]: 50%
Clc1ccc(CNc2ccnc(N3CCC4(CCN(CC5CCCCN5)C4)CC3)n2)c(Cl)c1 (racemic)	2.51	182 (≈ 372 µM)	–
CN(Cc1ccc(Cl)cc1Cl)c1ccnc(N2CCC3(CCN(CC4CCCN4)C3)CC2)n1 (racemic)	1	141 (≈ 288 µM)	IC50 [1]: 7.94 nM; Kb [2]: 1000 nM; EC50 [5]: 158 nM; Activity [6]: 74%
Clc1ccc(CNc2ccnc(N3CCC4(CCN(CC5CCCN5)C4)CC3)n2)c(Cl)c1 (racemic)	1.58	270 (≈ 568 µM)	IC50 [1]: 7.94 nM; Kb [2]: 200 nM; fraction unbound [8]: 0.068; half-life [9]: 4 h; Vd [10]: 5 L/kg; CL [11]: 18%; clearance [12]: 15 mL/min/kg
CN(Cc1ccc(Cl)cc1Cl)c1ccnc(N2CCC3(CCN(C(=O)C4CCCN4)C3)CC2)n1 (racemic)	25.1	190 (≈ 377 µM)	–
Fc1ccc(CNc2ccnc(N3CCC4(CCN(CC5CCCN5)C4)CC3)n2)c(F)c1 (racemic)	3.16	160 (≈ 362 µM)	IC50 [1]: 7.94 nM; EC50 [5]: 15.8 nM; Activity [6]: 62%
O=C(C1CCCN1)N1CCC2(CCN(c3nccc(NCc4ccc(F)cc4F)n3)CC2)C1 (racemic)	25.1	175 (≈ 383 µM)	–

Second part, led by results:

Ki [3] [nM]	solubility kinetic [4] [µg/mL]	SMILES	further results
126	138	CNCC(=O)N1CCC2(CCN(c3nccc(NCc4ccc(Cl)cc4Cl)n3)CC2)C1.O=C(O)C(F)(F)F.O=C(O)C(F)(F)F	–
100	17 (≈ 34.2 µM)	O=C(c1ccccn1)N1CCC2(CCN(c3nccc(NCc4ccc(Cl)cc4Cl)n3)CC2)C1	–
15.8	180 (≈ 368 µM)	O=C([C@H]1CCCN1)N1CCC2(CCN(c3nccc(NCc4ccc(Cl)cc4Cl)n3)CC2)C1	–
100	165 (≈ 337 µM)	O=C([C@@H]1CCCN1)N1CCC2(CCN(c3nccc(NCc4ccc(Cl)cc4Cl)n3)CC2)C1	–
25.1	79 (≈ 161 µM)	O=C(C1CCCN1)N1CCC2(CCN(c3nccc(NCc4ccc(Cl)cc4Cl)n3)CC2)C1 (racemic)	–
50.1	339	O=C(C1CCNC1)N1CCC2(CCN(c3nccc(NCc4ccc(Cl)cc4Cl)n3)CC2)C1.O=C(O)C(F)(F)F (racemic)	–
50.1	186 (≈ 369 µM)	O=C(C1CCCNC1)N1CCC2(CCN(c3nccc(NCc4ccc(Cl)cc4Cl)n3)CC2)C1 (racemic)	–
–	233 (≈ 461 µM)	O=C(C1COCCN1)N1CCC2(CCN(c3nccc(NCc4ccc(Cl)cc4Cl)n3)CC2)C1 (racemic)	–
